From the supplement of paper PMC10307832

Columns and labels:
Experiment in all cases: relative viability (nuclei count vs DMSO), 5 days (fraction); higher = more cells survive
[1] = compound: CC[C@H](C)N1C=C(C2=C(C=C(C=C21)C3=CN=C(C=C3)N4CCNCC4)C(=O)NCC5=C(C=C(NC5=O)C)C)C [GSK126] + Cc1cc(Nc2cc(N3CCN(C)CC3)nc(Sc3ccc(NC(=O)C4CC4)cc3)n2)n[nH]1 [Tozasertib] (partner 0.1 µM)
Outline: (§1)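 Each reported value is a median over duplicate plates. It expresses relative viability: treated-well nuclei count divided by vehicle-well nuclei count. Lung cancer cell lines in 1536-well plates were dosed by pin tool a day after seeding, alone with one drug or with a fixed anchor-drug dose plus five library-drug doses (not always all listed) in √10 steps, and nuclei were counted after 5 days.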

[2] = compound: NS(=O)(=O)OC[C@@H]1C[C@@H](n2ccc3c(N[C@H]4CCc5ccccc54)ncnc32)C[C@@H]1O [MLN4924] + CC(=O)c1c(C)c2cnc(Nc3ccc(N4CCNCC4)cn3)nc2n(C2CCCC2)c1=O [Palbociclib] (partner 0.5 µM)
Outline: as §1

[3] = compound: NS(=O)(=O)OC[C@@H]1C[C@@H](n2ccc3c(N[C@H]4CCc5ccccc54)ncnc32)C[C@@H]1O [MLN4924] + Cc1nc(NC(=O)N2CCC[C@H]2C(N)=O)sc1-c1ccnc(C(C)(C)C(F)(F)F)c1 [Alpelisib] (partner 2 µM)
Outline: as §1

[4] = compound: NS(=O)(=O)OC[C@@H]1C[C@@H](n2ccc3c(N[C@H]4CCc5ccccc54)ncnc32)C[C@@H]1O [MLN4924] + Nc1ncn([C@H]2C[C@H](O)[C@@H](CO)O2)c(=O)n1 [Decitabine] (partner 2 µM)
Outline: as §1

Row | Cell Line | relative viability ([1]; first compound 0.08 µM) | relative viability ([1]; first compound 0.253 µM) | relative viability ([1]; first compound 0.8 µM) | relative viability ([1]; first compound 2.53 µM) | relative viability ([1]; first compound 8 µM) | relative viability ([2]; first compound 0.04 µM) | relative viability ([2]; first compound 0.1265 µM) | relative viability ([2]; first compound 0.4 µM) | relative viability ([2]; first compound 1.265 µM) | relative viability ([2]; first compound 4 µM) | relative viability ([3]; first compound 0.04 µM) | relative viability ([3]; first compound 0.1265 µM) | relative viability ([3]; first compound 0.4 µM) | relative viability ([3]; first compound 1.265 µM) | relative viability ([3]; first compound 4 µM) | relative viability ([4]; first compound 0.04 µM) | relative viability ([4]; first compound 0.1265 µM) | relative viability ([4]; first compound 0.4 µM) | relative viability ([4]; first compound 1.265 µM) | relative viability ([4]; first compound 4 µM)
1 | NCI-H23 | 0.374 | 0.374 | 0.354 | 0.624 | 0.266 | 0.478 | 0.441 | 0.26 | 0.175 | 0.2 | 0.611 | 0.5 | 0.28 | 0.149 | 0.155 | 0.344 | 0.329 | 0.276 | 0.249 | 0.21
2 | NCI-H358 | 0.105 | 0.116 | 0.133 | 0.12 | 0.122 | 0.127 | 0.16 | 0.115 | 0.0864 | 0.0788 | 1.01 | 0.899 | 0.34 | 0.189 | 0.162 | 0.2 | 0.206 | 0.183 | 0.111 | 0.148
3 | NCI-H1944 | 0.261 | 0.24 | 0.247 | 0.23 | 0.28 | 0.374 | 0.371 | 0.366 | 0.197 | 0.178 | 1.02 | 1.02 | 1.04 | 0.23 | 0.188 | 0.454 | 0.324 | 0.334 | 0.17 | 0.146
4 | NCI-H1755 | 0.577 | 0.64 | 0.53 | 0.552 | 0.508 | 0.4 | 0.442 | 0.314 | 0.209 | 0.257 | 0.835 | 0.638 | 0.475 | 0.172 | 0.145 | 0.644 | 0.545 | 0.526 | 0.378 | 0.245
5 | A-427 | 0.227 | 0.245 | 0.189 | 0.226 | 0.162 | 0.381 | 0.339 | 0.321 | 0.29 | 0.282 | 0.728 | 0.334 | 0.28 | 0.183 | 0.2 | 0.445 | 0.421 | 0.309 | 0.282 | 0.265
6 | SW 1573 | 0.222 | 0.211 | 0.159 | 0.176 | 0.198 | 0.375 | 0.306 | 0.155 | 0.0802 | 0.0896 | 1.01 | 0.974 | 0.957 | 0.155 | 0.0628 | 0.525 | 0.313 | 0.158 | 0.0741 | 0.0974
7 | PC-14 | 0.614 | 0.674 | 0.639 | 0.535 | 0.403 | 0.463 | 0.416 | 0.138 | 0.0525 | 0.0516 | 0.929 | 0.904 | 0.826 | 0.177 | 0.0924 | 0.275 | 0.177 | 0.105 | 0.0656 | 0.104
8 | LOU-NH91 | 0.741 | 0.66 | 0.661 | 0.685 | 0.631 | 0.494 | 0.521 | 0.532 | 0.426 | 0.413 | 0.804 | 1.02 | 0.855 | 0.407 | 0.476 | 0.793 | 0.797 | 0.684 | 0.557 | 0.523
9 | BEN | 0.516 | 0.388 | 0.669 | – | 0.462 | 0.402 | 0.411 | 0.374 | 0.285 | 0.222 | 0.868 | 0.458 | 0.372 | 0.151 | 0.147 | 0.517 | 0.436 | 0.383 | 0.288 | 0.243
10 | NCI-H2085 | 0.918 | 0.734 | 0.76 | 0.72 | 0.654 | 0.489 | 0.505 | 0.587 | 0.556 | 0.416 | 0.921 | 1.01 | 0.94 | 0.743 | 0.416 | 0.492 | 0.58 | 0.612 | 0.48 | 0.424
11 | LCLC-103H | 0.699 | 0.473 | 0.435 | 0.512 | 0.446 | 0.47 | 0.421 | 0.352 | 0.265 | 0.32 | 1.14 | 1.18 | 1.12 | 0.234 | 0.342 | 0.807 | 0.638 | 0.547 | 0.261 | 0.315
12 | ABC-1 | 0.159 | 0.135 | 0.217 | 0.167 | 0.17 | 1 | 1.02 | 0.695 | 0.316 | 0.498 | 1.18 | 0.95 | 0.352 | 0.264 | 0.262 | 1.12 | 1.33 | 0.929 | 0.28 | 0.402
13 | NCI-H661 | 0.355 | 0.336 | 0.344 | 0.343 | 0.332 | 0.421 | 0.427 | 0.34 | 0.292 | 0.366 | 0.664 | 0.887 | 0.502 | 0.231 | 0.351 | 0.587 | 0.539 | 0.422 | 0.281 | 0.331
14 | H3255 | 0.704 | 0.65 | 0.74 | 0.614 | 0.466 | 0.299 | 0.283 | 0.259 | 0.308 | 0.274 | 0.694 | 0.548 | 0.265 | 0.175 | 0.242 | 0.469 | 0.392 | 0.338 | 0.228 | 0.218
15 | EMC-BAC-2 | 0.306 | 0.266 | 0.154 | 0.238 | 0.249 | 0.559 | 0.431 | 0.386 | 0.265 | 0.312 | 0.806 | 0.326 | 0.194 | 0.15 | 0.14 | 0.829 | 0.663 | 0.428 | 0.219 | 0.264
16 | NCI-H1666 | 0.667 | 0.624 | 0.557 | 0.52 | 0.49 | 0.553 | 0.549 | 0.693 | 0.492 | 0.46 | 1.18 | 0.832 | 0.432 | 0.148 | 0.205 | 0.699 | 0.622 | 0.417 | 0.393 | 0.389
